In brackets after ≈: the same amount, converted by molar mass.
What was measured:
[1] = system: N. gonorrhoeae; assay: MIC against N. gonorrhoeae clinical isolates, normal and CO2 conditions; format: cell-based; details: Neisseria gonorrhoeae
Method: (§1) These tests were performed in normal culture conditions with standard CO2 levels and in CO2 (5% in incubator) conditions.

[2] = system: ATCC strain 700825; assay: MICs against ATCC strain 700825; format: cell-based, N. gonorrhoeae; details: Neisseria gonorrhoeae
Method: as §1

[3] = system: intracellular N. gonorrhoeae; assay: Intracellular clearance of N. gonorrhoeae in infected endocervical cells (End1/E6E7); format: cell-based; details: 5×MIC, 24 hours
Description: Intracellular clearance of N. gonorrhoeae—N. gonorrhoeae is known to invade epithelial cells of the genital tract and cross the epithelial barrier into the subepithelial space^59. Previous studies have shown that N. gonorrhoeae can survive inside host cells and pass epithelial cell layers (a key step in causing disseminated infections)^60,61. Therefore, a drug candidate must also be able to kill intracellular N. gonorrhoeae in order to be an effective therapeutic. Also, we were concerned that CAIs have reduced activity in high-CO2 conditions and may not be suitable to treat intracellular infection. Thus, we examined CAIs ability to reduce the burden of intracellular N. gonorrhoeae present in infected endocervical cells^56.

[4] = system: N. gonorrhoeae; assay: Post-antibiotic effect (PAE); format: cell-based; details: after exposure to 10×MIC for 1 hour
[5] = N. gonorrhoeae 178, Non CO2 environment
[6] = N. gonorrhoeae 178, normal growth environment (with CO2)
[7] = N. gonorrhoeae 181, Non CO2 environment
[8] = N. gonorrhoeae 181, normal growth environment (with CO2)
[9] = N. gonorrhoeae 194, Non CO2 environment
[10] = N. gonorrhoeae 194, normal growth environment (with CO2)

Row | MIC ([2]; ATCC700825, In CO2) | MIC ([2]; ATCC700825, In air) | SMILES | MIC [1, 5] | MIC [1, 6] | MIC [1, 7] | MIC [1, 8] | MIC [1, 9] | MIC [1, 10] | reduction in N. gonorrhoeae inside infected endocervical cells [3] | PAE ([4]; Ng 181) | PAE ([4]; Ng 186) | PAE ([4]; Ng 194) | PAE ([4]; Ng 198) | PAE ([4]; clinical isolates of N. gonorrhoeae)
1 | – | – | CC(=O)Nc1ccc(S(N)(=O)=O)cc1 [CAI 0030] | 8 µg/mL (≈ 37.3 µM) | > 64 µg/mL | 32 µg/mL (≈ 149 µM) | > 64 µg/mL | 16 µg/mL (≈ 74.7 µM) | > 64 µg/mL | – | – | – | – | – | –
2 | – | – | NS(=O)(=O)c1nnc(NC(=O)CC2CCCC2)s1 [CAI 0021] | 2 µg/mL (≈ 6.89 µM) | 64 µg/mL (≈ 220 µM) | 1 µg/mL (≈ 3.44 µM) | > 64 µg/mL | 4 µg/mL (≈ 13.8 µM) | > 64 µg/mL | – | – | – | – | – | –
3 | 32 µg/mL (≈ 100 µM) | 4 µg/mL (≈ 12.6 µM) | NS(=O)(=O)c1nnc(NC(=O)CCC2CCCCC2)s1 [CAI 0019] | 4 µg/mL (≈ 12.6 µM) | 64 µg/mL (≈ 201 µM) | 1 µg/mL (≈ 3.14 µM) | 64 µg/mL (≈ 201 µM) | 2 µg/mL (≈ 6.28 µM) | > 64 µg/mL | – | – | – | – | – | –
4 | – | – | CCN[C@H]1CN(CCCOC)S(=O)(=O)c2sc(S(N)(=O)=O)cc21 [Brinzolamide] | > 64 µg/mL | > 64 µg/mL | > 64 µg/mL | > 64 µg/mL | > 64 µg/mL | > 64 µg/mL | – | – | – | – | – | –
5 | – | – | CCC(=O)Nc1nnc(S(N)(=O)=O)s1 [CAI 009] | 8 µg/mL (≈ 33.9 µM) | 16 µg/mL (≈ 67.7 µM) | 8 µg/mL (≈ 33.9 µM) | > 64 µg/mL | 16 µg/mL (≈ 67.7 µM) | 64 µg/mL (≈ 271 µM) | – | – | – | – | – | –
6 | – | – | CO/N=C(\C(=O)N[C@@H]1C(=O)N2C(C(=O)O)=C(CSc3nc(=O)c(=O)[nH]n3C)CS[C@H]12)c1csc(N)n1 [ceftriaxone] | – | – | – | – | – | – | 0.32 log10 | – | – | – | – | –
7 | – | – | CCNc1nnc(S(N)(=O)=O)s1 [CAI 0032] | 64 µg/mL (≈ 307 µM) | > 64 µg/mL | > 64 µg/mL | > 64 µg/mL | > 64 µg/mL | > 64 µg/mL | – | – | – | – | – | –
8 | 128 µg/mL (≈ 416 µM) | 32 µg/mL (≈ 104 µM) | NS(=O)(=O)c1nnc(NC(=O)CN2CCOCC2)s1 [CAI 0031] | 32 µg/mL (≈ 104 µM) | 64 µg/mL (≈ 208 µM) | > 64 µg/mL | > 64 µg/mL | 64 µg/mL (≈ 208 µM) | > 64 µg/mL | – | – | – | – | – | –
9 | – | – | NS(=O)(=O)c1nnc(NC(=O)CC2CCCCC2)s1 [CAI 0029] | 1 µg/mL (≈ 3.29 µM) | 32 µg/mL (≈ 105 µM) | 0.5 µg/mL (≈ 1.64 µM) | > 64 µg/mL | 2 µg/mL (≈ 6.57 µM) | > 64 µg/mL | – | – | – | – | – | –
10 | – | – | CCCC(=O)Nc1nnc(S(N)(=O)=O)s1 [CAI 0013] | – | 8 µg/mL (≈ 32 µM) | 8 µg/mL (≈ 32 µM) | 32 µg/mL (≈ 128 µM) | 4 µg/mL (≈ 16 µM) | 8 µg/mL (≈ 32 µM) | – | – | – | – | – | –
11 | – | – | CN1CCN(CC(=O)Nc2nnc(S(N)(=O)=O)s2)CC1 [CAI 0036] | 64 µg/mL (≈ 200 µM) | > 64 µg/mL | > 64 µg/mL | > 64 µg/mL | > 64 µg/mL | > 64 µg/mL | – | – | – | – | – | –
12 | – | – | NS(=O)(=O)c1nnc(NC(=O)C2CC2)s1 [CAI 0020] | 2 µg/mL (≈ 8.06 µM) | 64 µg/mL (≈ 258 µM) | 2 µg/mL (≈ 8.06 µM) | 64 µg/mL (≈ 258 µM) | 4 µg/mL (≈ 16.1 µM) | > 64 µg/mL | – | – | – | – | – | –
13 | – | – | CC[C@H]1OC(=O)[C@H](C)[C@@H](O[C@H]2C[C@@](C)(OC)[C@@H](O)[C@H](C)O2)[C@H](C)[C@@H](O[C@@H]2O[C@H](C)C[C@H](N(C)C)[C@H]2O)[C@](C)(O)C[C@@H](C)CN(C)[C@H](C)[C@@H](O)[C@]1(C)O [Azithromycin] | 0.25 µg/mL (≈ 0.334 µM) | 1 µg/mL (≈ 1.34 µM) | > 128 µg/mL | > 128 µg/mL | 0.25 µg/mL (≈ 0.334 µM) | 0.5 µg/mL (≈ 0.668 µM) | – | 8 h | 8 h | 8 h | 8 h | 8 h
14 | – | – | CC(C)C(=O)Nc1nnc(S(N)(=O)=O)s1 [CAI 0011] | 16 µg/mL (≈ 63.9 µM) | 32 µg/mL (≈ 128 µM) | 16 µg/mL (≈ 63.9 µM) | > 64 µg/mL | 8 µg/mL (≈ 32 µM) | 64 µg/mL (≈ 256 µM) | – | – | – | – | – | –
15 | 32 µg/mL (≈ 122 µM) | 16 µg/mL (≈ 61 µM) | NS(=O)(=O)c1nnc(NC(=O)CC2CC2)s1 [CAI 0040] | – | – | – | – | – | – | – | – | – | – | – | –
16 | – | – | CC(C)(C)CC(=O)Nc1nnc(S(N)(=O)=O)s1 [CAI 0028] | 8 µg/mL (≈ 28.7 µM) | 32 µg/mL (≈ 115 µM) | 16 µg/mL (≈ 57.5 µM) | 64 µg/mL (≈ 230 µM) | 32 µg/mL (≈ 115 µM) | 64 µg/mL (≈ 230 µM) | – | – | – | – | – | –

— patent US20220213047A1, “CARBONIC ANHYDRASE INHIBITORS FOR TREATMENT OF NEISSERIA GONORRHOEAE INFECTION” (Purdue Research Foundation, priority 2021, published 2022)
